Among the data in US20230022157A1 (Achillion Pharmaceuticals, Inc., priority 2018, published 2023) are IC50 values, retold here.

Each structure is given as a SMILES string.

T1 sequence (P00746 26-253): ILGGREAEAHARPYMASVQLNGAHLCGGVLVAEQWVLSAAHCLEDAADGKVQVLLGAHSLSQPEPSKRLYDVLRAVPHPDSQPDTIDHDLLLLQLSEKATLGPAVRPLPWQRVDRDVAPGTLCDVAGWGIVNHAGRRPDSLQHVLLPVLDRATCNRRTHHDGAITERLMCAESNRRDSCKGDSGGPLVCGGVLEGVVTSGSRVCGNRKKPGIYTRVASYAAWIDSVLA

One assay addresses T1, Human Factor D (Homo sapiens, UniProt P00746).
T1 construct: purified from human serum; purchased Complement Technology, Inc; host or cells: human serum (natural protein, not recombinant)
In words: Human Factor D Assay. Format: biochemical. Conditions: Human Factor D 80 nM, substrate Z-L-Lys-SBzl, assay of Example 3; read-out: IC50 (Stars). Here is the method:
Human Factor D (purified from human serum, Complement Technology, Inc.) at 80 nM final concentration is incubated with test compound at various concentrations for 5 min at room temperature in 50 mM Tris, 1M NaCl, pH 7.5. A synthetic substrate Z-L-Lys-SBzl and DTNB (Ellman's reagent) are added to final concentrations of 100 μM each. […] IC50 values are calculated by nonlinear regression of complement Factor D reaction rates as a function of test compound concentration.
`CC(=O)c1nn(CC(=O)N2[C@H](C(=O)Nc3cccc(Br)n3)C[C@@]3(C)C[C@@H]23)c2c3c(c(-c4cnc(C)nc4)cc12)CCCO3` [Compound 19, (1R,3S,5R)-2-(2-(3-acetyl-5-(2-methylpyrimidin-5-yl)-7,8-dihydropyran[3,2-g]indazol-1(6H)-yl)acetyl)-N-(6-bromopyridin-2-yl)-5-methyl-2-azabicyclo[3.1.0] hexane-3-carboxamide]: the IC50 was under 1000 nM.

Regarding `CC(=O)c1nn(CC(=O)N2[C@H](C(=O)Nc3nc(Br)ccc3C)C[C@@]3(CO)C[C@@H]23)c2c(C)cc(-c3cnc(C)nc3)cc12` [Compound 21, (1R,3S,5S)-2-(2-(3-Acetyl-7-methyl-5-(2-methylpyrimidin-5-yl)-1H-indazol-1-yl)acetyl)-N-(6-bromo-3-methylpyridin-2-yl)-5-(hydroxymethyl)-2-azabicyclo[3.1.0]hexane-3-carboxamide], the IC50 was under 1000 nM.

On to `CC(=O)c1nn(CC(=O)N2[C@H](C(=O)Nc3cccc(C(F)(F)F)c3F)C[C@@]3(C)C[C@@H]23)c2ccc(-c3cnc(C)nc3)cc12` [Compound 24, (1R,3S,5R)-2-(2-(3-Acetyl-5-(2-methylpyrimidin-5-yl)-1H-indazol-1-yl)acetyl)-N-(2-fluoro-3-(trifluoromethyl)phenyl)-5-methyl-2-azabicyclo[3.1.0]hexane-3-carboxamide], for which the IC50 was under 1000 nM.

Take `CC(=O)c1nn(CC(=O)N2[C@H](C(=O)NCCc3ccccn3)C[C@@]3(C)C[C@@H]23)c2c(C)cc(-c3cnc(C)nc3)cc12` [Compound 6, (1R,3S,5R)-2-(2-(3-Acetyl-7-methyl-5-(2-methylpyrimidin-5-yl)-1H-indazol-1-yl)acetyl)-5-methyl-N-(2-(pyridin-2-yl)ethyl)-2-azabicyclo[3.1.0]hexane-3-carboxamide]: the IC50 was under 1000 nM.

For the compound `CC(=O)c1nn(CC(=O)N2[C@H](C(=O)NCCc3cccnc3)C[C@@]3(C)C[C@@H]23)c2c(C)cc(-c3cnc(C)nc3)cc12` [Compound 7, (1R,3S,5R)-2-(2-(3-Acetyl-7-methyl-5-(2-methylpyrimidin-5-yl)-1H-indazol-1-yl)acetyl)-5-methyl-N-(2-(pyridin-3-yl)ethyl)-2-azabicyclo[3.1.0]hexane-3-carboxamide], the IC50 was under 1000 nM.

The same assay, now with this note: Human Factor D 80 nM, substrate Z-L-Lys-SBzl; Table 2; read-out: IC50 (Stars).
Consider `CC(=O)c1nn(CC(=O)N2[C@H]3CC[C@H](C3)[C@H]2C(=O)Nc2nc(C(F)(F)F)ccc2C)c2c(C)cc(-c3cncc(C4(C(=O)O)CC4)c3)cc12` [Compound 128, 1-(5-(3-Acetyl-7-methyl-1-(2-((1S,3S,4R)-3-((3-methyl-6-(trifluoromethyl)pyridin-2-yl)carbamoyl)-2-azabicyclo[2.2.1]heptan-2-yl)-2-oxoethyl)-1H-indazol-5-yl)pyridin-3-yl)cyclopropane-1-carboxylic acid], for which the concentration for half-maximal inhibition (IC50) was under 1000 nM.

Consider `CC(=O)c1nn(CC(=O)N2[C@H](C(=O)Nc3nc(Br)ccc3C)C[C@@]3(C)C[C@@H]23)c2c(C)cc(-c3cnc(CF)nc3)cc12` [Compound 208, (1R,3S,5R)-2-(2-(3-acetyl-5-(2-(fluoromethyl)pyrimidin-5-yl)-7-methyl-1H-indazol-1-yl)acetyl)-N-(6-bromo-3-methylpyridin-2-yl)-5-methyl-2-azabicyclo[3.1.0]hexane-3-carboxamide], for which the IC50 is under 1000 nM.

As to `CC(=O)c1nn(CC(=O)N2[C@H](C(=O)Nc3cc(F)cc(Br)n3)C[C@@]3(C)C[C@@H]23)c2c(C)cc(-c3cnc(C(C)O)nc3)cc12` (stereo partly drawn) [Compound 124, (1R,3S,5R)-2-(2-(3-acetyl-5-(2-(1-hydroxyethyl)pyrimidin-5-yl)-7-methyl-1H-indazol-1-yl)acetyl)-N-(6-bromo-4-fluoropyridin-2-yl)-5-methyl-2-azabicyclo[3.1.0]hexane-3-carboxamide], the half-inhibitory concentration (IC50) was under 1000 nM.

For `CC(=O)c1nn(CC(=O)N2[C@H](C(=O)NCC3(C)CC3)C[C@@]3(C)C[C@@H]23)c2c(C)cc(-c3cnc(C)nc3)cc12` [Compound 89, (1R,3S,5R)-2-{2-[3-acetyl-7-methyl-5-(2-methylpyrimidin-5-yl)indazol-1-yl]acetyl}-5-methyl-N-[(1-methylcyclopropyl)methyl]-2-azabicyclo[3.1.0]hexane-3-carboxamide], the 50% inhibitory concentration (IC50) is under 1000 nM.

As for `CC(=O)c1nn(CC(=O)N2[C@H](C(=O)NCCC3CCC3)C[C@@]3(C)C[C@@H]23)c2c(C)cc(-c3cnc(C)nc3)cc12` [Compound 104, (1R,3S,5R)-2-{2-[3-acetyl-7-methyl-5-(2-methylpyrimidin-5-yl)indazol-1-yl]acetyl}-N-(2-cyclobutylethyl)-5-methyl-2-azabicyclo[3.1.0]hexane-3-carboxamide], the half-maximal inhibitory concentration (IC50) is under 1000 nM.

Consider `CC(=O)c1nn(CC(=O)N2[C@H](C(=O)N[C@@H]3CCCC[C@@H]3C)C[C@@]3(C)C[C@@H]23)c2c(C)cc(-c3cnc(C)nc3)cc12` [Compound 190, (1R,3S,5R)-2-{2-[3-acetyl-7-methyl-5-(2-methylpyrimidin-5-yl)indazol-1-yl]acetyl}-5-methyl-N-[(1R,2S)-2-methylcyclohexyl]-2-azabicyclo[3.1.0]hexane-3-carboxamide], for which the IC50 is under 1000 nM.

Take `CC(=O)c1nn(CC(=O)N2[C@H](C(=O)Nc3nc(C(F)(F)F)ccc3C)C[C@@]3(C)C[C@@H]23)c2c(CF)cc(-c3cnc(C)nc3)cc12` [Compound 237, (1R,3S,5R)-2-(2-(3-acetyl-7-(fluoromethyl)-5-(2-methylpyrimidin-5-yl)-1H-indazol-1-yl)acetyl)-5-methyl-N-(3-methyl-6-(trifluoromethyl)pyridin-2-yl)-2-azabicyclo[3.1.0]hexane-3-carboxamide]: the IC50 was under 1000 nM.

Take `CC(=O)c1cn(CC(=O)N2[C@H](C(=O)Nc3nc(Br)ccc3C)C[C@@]3(C)C[C@@H]23)c2ccc(-c3cnc4cc(C)nn4c3)cc12` [Compound 202, (1R,3S,5R)-2-(2-(3-acetyl-5-(2-methylpyrazolo[1,5-a]pyrimidin-6-yl)-1H-indol-1-yl)acetyl)-N-(6-bromo-3-methylpyridin-2-yl)-5-methyl-2-azabicyclo[3.1.0]hexane-3-carboxamide]: the IC50 is under 1000 nM.

For `CC(=O)c1cn(CC(=O)N2[C@H](C(=O)Nc3nc(C(F)(F)F)ccc3C)C[C@@]3(C)C[C@@H]23)c2c(CO)nc(-c3cnc(C)nc3)cc12` [Compound 207, (1R,3S,5R)-2-(2-(3-acetyl-7-(hydroxymethyl)-5-(2-methylpyrimidin-5-yl)-1H-pyrrolo[2,3-c]pyridin-1-yl)acetyl)-5-methyl-N-(3-methyl-6-(trifluoromethyl)pyridin-2-yl)-2-azabicyclo[3.1.0]hexane-3-carboxamide], the IC50 is under 1000 nM.

For `CC(=O)c1nn(CC(=O)N2[C@H](C(=O)Nc3nc(Br)ccc3C)C[C@@]3(C)C[C@@H]23)c2c(C)cc(-c3cnc(C4(O)CC4)nc3)cc12` [Compound 169], the IC50 was under 1000 nM.

With `CC(=O)c1nn(CC(=O)N2[C@H](C(=O)N[C@H](C)CC3CC3)C[C@@]3(C)C[C@@H]23)c2c(C)cc(-c3cnc(C)nc3)cc12` [Compound 133, (1R,3S,5R)-2-{2-[3-acetyl-7-methyl-5-(2-methylpyrimidin-5-yl)indazol-1-yl]acetyl}-N-[(2R)-1-cyclopropylpropan-2-yl]-5-methyl-2-azabicyclo[3.1.0]hexane-3-carboxamide], the IC50 was under 1000 nM.
